In ChEMBL document CHEMBL1649226, “Species identification and antifungal susceptibility patterns of species belonging to Aspergillus section Nigri” (2009):
In brackets after ≈: the same amount, converted by molar mass.

How the values were obtained:
Type in all cases: functional
[1] = system: Aspergillus tubingensis; test: Antifungal activity against Aspergillus tubingensis isolate CM-4000 after 48 hrs by EUCAST broth dilution method; details: isolate CM-4000, 48 h
[2] = system: Aspergillus tubingensis; test: Antifungal activity against Aspergillus tubingensis isolate CM-4897 obtained from blood culture after 48 hrs by EUCAST broth dilution method; details: isolate CM-4897, 48 h
[3] = system: Aspergillus niger; test: Antifungal activity against Aspergillus niger isolate CM-3551 obtained from respiratory tract infection of patient after 48 hrs by EUCAST broth dilution method; details: isolate CM-3551, 48 h
[4] = system: Aspergillus niger; test: Antifungal activity against Aspergillus niger isolate CM-3236 obtained from respiratory tract infection of patient after 48 hrs by EUCAST broth dilution method; details: isolate CM-3236, 48 h
[5] = system: Aspergillus niger; test: Antifungal activity against Aspergillus niger isolate CM-3586 obtained from catheter of patient after 48 hrs by EUCAST broth dilution method; details: isolate CM-3586, 48 h
[6] = system: Aspergillus tubingensis; test: Antifungal activity against Aspergillus tubingensis isolate CM-4264 obtained from blood culture after 48 hrs by EUCAST broth dilution method; details: isolate CM-4264, 48 h
[7] = system: Aspergillus tubingensis; test: Antifungal activity against Aspergillus tubingensis isolate CM-3177 obtained from respiratory tract infection of patient after 48 hrs by EUCAST broth dilution method; details: isolate CM-3177, 48 h
[8] = system: Aspergillus niger; test: Antifungal activity against Aspergillus niger isolate CM-3672 obtained from cutaneous layer of patient after 48 hrs by EUCAST broth dilution method; details: isolate CM-3672, 48 h
[9] = system: Aspergillus niger; test: Antifungal activity against Aspergillus niger isolate CM-4213 obtained from respiratory tract infection of patient after 48 hrs by EUCAST broth dilution method; details: isolate CM-4213, 48 h
[10] = system: Aspergillus tubingensis; test: Antifungal activity against Aspergillus tubingensis isolate CM-4003 after 48 hrs by EUCAST broth dilution method; details: isolate CM-4003, 48 h
[11] = system: Aspergillus tubingensis; test: Antifungal activity against Aspergillus tubingensis isolate CM-3507 obtained from respiratory tract infection of patient after 48 hrs by EUCAST broth dilution method; details: isolate CM-3507, 48 h
[12] = system: Aspergillus foetidus; test: Antifungal activity against Aspergillus foetidus isolate CM-4995 obtained from prosthesis after 48 hrs by EUCAST broth dilution method; details: isolate CM-4995, 48 h
[13] = system: Aspergillus niger; test: Antifungal activity against Aspergillus niger isolate CM-3506 obtained from respiratory tract infection of patient after 48 hrs by EUCAST broth dilution method; details: isolate CM-3506, 48 h
[14] = system: Aspergillus tubingensis; test: Antifungal activity against Aspergillus tubingensis isolate CM-4688 obtained from respiratory tract infection of patient after 48 hrs by EUCAST broth dilution method; details: isolate CM-4688, 48 h
[15] = system: Aspergillus tubingensis; test: Antifungal activity against Aspergillus tubingensis isolate CM-4296 obtained from respiratory tract infection of patient after 48 hrs by EUCAST broth dilution method; details: isolate CM-4296, 48 h
[16] = system: Aspergillus niger; test: Antifungal activity against Aspergillus niger isolate CM-3636 obtained from respiratory tract infection of patient after 48 hrs by EUCAST broth dilution method; details: isolate CM-3636, 48 h
[17] = system: Aspergillus niger; test: Antifungal activity against Aspergillus niger isolate CM-4004 obtained from after 48 hrs by EUCAST broth dilution method; details: isolate CM-4004, 48 h
[18] = system: Aspergillus tubingensis; test: Antifungal activity against Aspergillus tubingensis isolate CM-4005 after 48 hrs by EUCAST broth dilution method; details: isolate CM-4005, 48 h
[19] = system: Aspergillus niger; test: Antifungal activity against Aspergillus niger isolate CM-3257 obtained from respiratory tract infection of patient after 48 hrs by EUCAST broth dilution method; details: isolate CM-3257, 48 h
[20] = system: Aspergillus niger; test: Antifungal activity against Aspergillus niger isolate CM-4262 after 48 hrs by EUCAST broth dilution method Ophthalmic; details: isolate CM-4262, 48 h
[21] = system: Aspergillus tubingensis; test: Antifungal activity against Aspergillus tubingensis isolate CM-3810 obtained from respiratory tract infection of patient after 48 hrs by EUCAST broth dilution method; details: isolate CM-3810, 48 h
[22] = system: Aspergillus tubingensis; test: Antifungal activity against Aspergillus tubingensis isolate CM-3125 obtained from respiratory tract infection of patient after 48 hrs by EUCAST broth dilution method; details: isolate CM-3125, 48 h
[23] = system: Aspergillus tubingensis; test: Antifungal activity against Aspergillus tubingensis isolate CM-4899 obtained from respiratory tract infection of patient after 48 hrs by EUCAST broth dilution method; details: isolate CM-4899, 48 h
[24] = system: Aspergillus foetidus; test: Antifungal activity against Aspergillus foetidus isolate CM-5264 obtained from respiratory tract infection of patient after 48 hrs by EUCAST broth dilution method; details: isolate CM-5264, 48 h
[25] = system: Aspergillus tubingensis; test: Antifungal activity against Aspergillus tubingensis isolate CM-3585 after 48 hrs by EUCAST broth dilution method; details: isolate CM-3585, 48 h
[26] = system: Aspergillus tubingensis; test: Antifungal activity against Aspergillus tubingensis isolate CM-3654 obtained from blood culture after 48 hrs by EUCAST broth dilution method; details: isolate CM-3654, 48 h
[27] = system: Aspergillus foetidus; test: Antifungal activity against Aspergillus foetidus isolate CM-4002 after 48 hrs by EUCAST broth dilution method; details: isolate CM-4002, 48 h
[28] = system: Aspergillus niger; test: Antifungal activity against Aspergillus niger isolate CM-5095 obtained from respiratory tract infection of patient after 48 hrs by EUCAST broth dilution method; details: isolate CM-5095, 48 h
[29] = system: Aspergillus tubingensis; test: Antifungal activity against Aspergillus tubingensis isolate CM-5094 obtained from respiratory tract infection of patient after 48 hrs by EUCAST broth dilution method; details: isolate CM-5094, 48 h
[30] = system: Aspergillus tubingensis; test: Antifungal activity against Aspergillus tubingensis isolate CM-4001 after 48 hrs by EUCAST broth dilution method; details: isolate CM-4001, 48 h
[31] = system: Aspergillus niger; test: Antifungal activity against Aspergillus niger isolate CM-4316 obtained from respiratory tract infection of patient after 48 hrs by EUCAST broth dilution method; details: isolate CM-4316, 48 h
[32] = system: Aspergillus niger; test: Antifungal activity against Aspergillus niger isolate CM-3641 obtained from respiratory tract infection of patient after 48 hrs by EUCAST broth dilution method; details: isolate CM-3641, 48 h
[33] = system: Aspergillus tubingensis; test: Antifungal activity against Aspergillus tubingensis isolate CM-4352 obtained from respiratory tract infection of patient after 48 hrs by EUCAST broth dilution method; details: isolate CM-4352, 48 h
[34] = system: Aspergillus tubingensis; test: Antifungal activity against Aspergillus tubingensis isolate CM-3123 obtained from respiratory tract infection of patient after 48 hrs by EUCAST broth dilution method; details: isolate CM-3123, 48 h

MIC [1] [µg/mL] | MIC [2] [µg/mL] | MIC [3] [µg/mL] | MIC [4] [µg/mL] | MIC [5] [µg/mL] | MIC [6] [µg/mL] | MIC [7] [µg/mL] | MIC [8] [µg/mL] | MIC [9] [µg/mL] | MIC [10] [µg/mL] | MIC [11] [µg/mL] | MIC [12] [µg/mL] | MIC [13] [µg/mL] | MIC [14] [µg/mL] | MIC [15] [µg/mL] | MIC [16] [µg/mL] | MIC [17] [µg/mL] | MIC [18] [µg/mL] | MIC [19] [µg/mL] | MIC [20] [µg/mL] | SMILES | other results
2 (≈ 4.57 µM) | 2 (≈ 4.57 µM) | 2 (≈ 4.57 µM) | 1 (≈ 2.29 µM) | 2 (≈ 4.57 µM) | 1.5 (≈ 3.43 µM) | 3.33 (≈ 7.61 µM) | 1.5 (≈ 3.43 µM) | 0.58 (≈ 1.33 µM) | 4 (≈ 9.14 µM) | 1.5 (≈ 3.43 µM) | 2 (≈ 4.57 µM) | 1 (≈ 2.29 µM) | 3.33 (≈ 7.61 µM) | 1.5 (≈ 3.43 µM) | 1 (≈ 2.29 µM) | 1.67 (≈ 3.82 µM) | 4 (≈ 9.14 µM) | 1 (≈ 2.29 µM) | 2 (≈ 4.57 µM) | C[C@@H](c1nc(-c2ccc(C#N)cc2)cs1)[C@](O)(Cn1cncn1)c1ccc(F)cc1F [RAVUCONAZOLE] | MIC [21]: 2 µg/mL (≈ 4.57 µM); MIC [22]: 1.67 µg/mL (≈ 3.82 µM); MIC [23]: 2.67 µg/mL (≈ 6.1 µM); MIC [24]: 8 µg/mL (≈ 18.3 µM); MIC [25]: 1.67 µg/mL (≈ 3.82 µM); MIC [26]: 2.5 µg/mL (≈ 5.71 µM); MIC [27]: 2.67 µg/mL (≈ 6.1 µM); MIC [28]: 1.5 µg/mL (≈ 3.43 µM); MIC [29]: 2 µg/mL (≈ 4.57 µM); MIC [30]: 2.5 µg/mL (≈ 5.71 µM); MIC [31]: 1 µg/mL (≈ 2.29 µM); MIC [32]: 1 µg/mL (≈ 2.29 µM); MIC [33]: 2 µg/mL (≈ 4.57 µM); MIC [34]: 2.67 µg/mL (≈ 6.1 µM)
0.33 (≈ 1.13 µM) | 0.42 (≈ 1.44 µM) | 0.25 (≈ 0.858 µM) | 1 (≈ 3.43 µM) | 0.12 (≈ 0.412 µM) | 0.5 (≈ 1.72 µM) | 0.67 (≈ 2.3 µM) | 0.07 (≈ 0.24 µM) | 0.22 (≈ 0.755 µM) | 1 (≈ 3.43 µM) | 0.62 (≈ 2.13 µM) | 0.33 (≈ 1.13 µM) | 0.31 (≈ 1.06 µM) | 1.5 (≈ 5.15 µM) | 0.62 (≈ 2.13 µM) | 1 (≈ 3.43 µM) | 0.13 (≈ 0.446 µM) | 0.25 (≈ 0.858 µM) | 1 (≈ 3.43 µM) | 0.29 (≈ 0.995 µM) | CN(C/C=C/C#CC(C)(C)C)Cc1cccc2ccccc12 [TERBINAFINE] | MIC [21]: 1 µg/mL (≈ 3.43 µM); MIC [22]: 0.5 µg/mL (≈ 1.72 µM); MIC [23]: 0.33 µg/mL (≈ 1.13 µM); MIC [24]: 0.5 µg/mL (≈ 1.72 µM); MIC [25]: 0.42 µg/mL (≈ 1.44 µM); MIC [26]: 0.63 µg/mL (≈ 2.16 µM); MIC [27]: 0.33 µg/mL (≈ 1.13 µM); MIC [28]: 0.62 µg/mL (≈ 2.13 µM); MIC [29]: 0.62 µg/mL (≈ 2.13 µM); MIC [30]: 0.56 µg/mL (≈ 1.92 µM); MIC [31]: 0.5 µg/mL (≈ 1.72 µM); MIC [32]: 0.25 µg/mL (≈ 0.858 µM); MIC [33]: 0.31 µg/mL (≈ 1.06 µM); MIC [34]: 1.17 µg/mL (≈ 4.01 µM)

SMILES | MIC [1] [µg/mL] | MIC [2] [µg/mL] | MIC [3] [µg/mL] | MIC [4] [µg/mL] | MIC [5] [µg/mL] | MIC [6] [µg/mL] | MIC [7] [µg/mL] | MIC [8] [µg/mL] | MIC [9] [µg/mL] | MIC [10] [µg/mL] | MIC [11] [µg/mL] | MIC [12] [µg/mL] | MIC [13] [µg/mL] | MIC [14] [µg/mL] | MIC [15] [µg/mL] | MIC [16] [µg/mL] | MIC [17] [µg/mL] | MIC [18] [µg/mL] | MIC [19] [µg/mL] | MIC [20] [µg/mL] | other results
C[C@@H](c1ncncc1F)[C@](O)(Cn1cncn1)c1ccc(F)cc1F [VORICONAZOLE] | 2 (≈ 5.73 µM) | 2 (≈ 5.73 µM) | 1 (≈ 2.86 µM) | 0.5 (≈ 1.43 µM) | 1 (≈ 2.86 µM) | 1 (≈ 2.86 µM) | 2 (≈ 5.73 µM) | 1 (≈ 2.86 µM) | 0.33 (≈ 0.945 µM) | 2 (≈ 5.73 µM) | 1 (≈ 2.86 µM) | 2 (≈ 5.73 µM) | 0.75 (≈ 2.15 µM) | 2 (≈ 5.73 µM) | 1 (≈ 2.86 µM) | 0.5 (≈ 1.43 µM) | 1 (≈ 2.86 µM) | 2 (≈ 5.73 µM) | 1 (≈ 2.86 µM) | 2 (≈ 5.73 µM) | MIC [21]: 2 µg/mL (≈ 5.73 µM); MIC [22]: 1 µg/mL (≈ 2.86 µM); MIC [23]: 2 µg/mL (≈ 5.73 µM); MIC [24]: 2 µg/mL (≈ 5.73 µM); MIC [25]: 1 µg/mL (≈ 2.86 µM); MIC [26]: 2 µg/mL (≈ 5.73 µM); MIC [27]: 2 µg/mL (≈ 5.73 µM); MIC [28]: 0.75 µg/mL (≈ 2.15 µM); MIC [29]: 0.75 µg/mL (≈ 2.15 µM); MIC [30]: 1.75 µg/mL (≈ 5.01 µM); MIC [31]: 0.5 µg/mL (≈ 1.43 µM); MIC [32]: 1 µg/mL (≈ 2.86 µM); MIC [33]: 0.88 µg/mL (≈ 2.52 µM); MIC [34]: 1.67 µg/mL (≈ 4.78 µM)
